{"source": "the supplement of paper PMC10307832", "assay_in_all_cases": "relative viability (nuclei count vs DMSO), 5 days (fraction); higher = more cells survive", "key": {"NCI-H2023": {"tested_on": "NCI-H2023", "in_short": "(§1)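 Relative viability was taken as the ratio of nuclei in treated wells to nuclei in vehicle wells. Lung cancer cell lines in 1536-well plates received compounds by pin tool one day after seeding, either one drug alone or a fixed anchor-drug dose plus five library-drug doses (not always all listed) in √10 steps. Nuclei were counted on 4× images after 5 days of treatment, and values are medians of duplicate plates.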"}, "HCC-827": {"tested_on": "HCC-827", "in_short": "as §1"}, "NCI-H727": {"tested_on": "NCI-H727", "in_short": "as §1"}, "LXF-289": {"tested_on": "LXF-289", "in_short": "as §1"}, "NCI-H1650": {"tested_on": "NCI-H1650", "in_short": "as §1"}, "NCI-H2087": {"tested_on": "NCI-H2087", "in_short": "as §1"}, "CAL-12T": {"tested_on": "CAL-12T", "in_short": "as §1"}, "NCI-H647": {"tested_on": "NCI-H647", "in_short": "as §1"}, "RERF-LC-KJ": {"tested_on": "RERF-LC-KJ", "in_short": "as §1"}, "NCI-H1355": {"tested_on": "NCI-H1355", "in_short": "as §1"}, "BEN": {"tested_on": "BEN", "in_short": "as §1"}, "NCI-H1395": {"tested_on": "NCI-H1395", "in_short": "as §1"}, "NCI-H322M": {"tested_on": "NCI-H322M", "in_short": "as §1"}, "NCI-H1793": {"tested_on": "NCI-H1793", "in_short": "as §1"}, "NCI-H1437": {"tested_on": "NCI-H1437", "in_short": "as §1"}, "LCLC-97TM1": {"tested_on": "LCLC-97TM1", "in_short": "as §1"}, "NCI-H3122": {"tested_on": "NCI-H3122", "in_short": "as §1"}, "HOP-62": {"tested_on": "HOP-62", "in_short": "as §1"}, "HCC-44": {"tested_on": "HCC-44", "in_short": "as §1"}, "NCI-H2405": {"tested_on": "NCI-H2405", "in_short": "as §1"}, "201T": {"tested_on": "201T", "in_short": "as §1"}, "SK-LU-1": {"tested_on": "SK-LU-1", "in_short": "as §1"}, "NCI-H2228": {"tested_on": "NCI-H2228", "in_short": "as §1"}}}
{"compound": "CC(C)Oc1cc(Nc2nc(N[C@@H](C)c3ccc(F)cn3)ncc2Cl)n[nH]1", "note": "[AZ23] + CS(=O)(=O)CCNCc1ccc(-c2ccc3ncnc(Nc4ccc(OCc5cccc(F)c5)c(Cl)c4)c3c2)o1 [Lapatinib] (partner 2 µM)", "values": [{"measurement": "relative viability", "setting": "NCI-H2023; first compound 0.03162 µM", "result": 0.945}, {"measurement": "relative viability", "setting": "NCI-H2023; first compound 0.3162 µM", "result": 0.929}, {"measurement": "relative viability", "setting": "HCC-827; first compound 0.01 µM", "result": 0.205}, {"measurement": "relative viability", "setting": "HCC-827; first compound 0.03162 µM", "result": 0.172}, {"measurement": "relative viability", "setting": "HCC-827; first compound 0.3162 µM", "result": 0.21}, {"measurement": "relative viability", "setting": "NCI-H727; first compound 0.01 µM", "result": 0.788}, {"measurement": "relative viability", "setting": "NCI-H727; first compound 0.03162 µM", "result": 0.945}, {"measurement": "relative viability", "setting": "NCI-H727; first compound 0.3162 µM", "result": 0.751}, {"measurement": "relative viability", "setting": "LXF-289; first compound 0.01 µM", "result": 1.01}, {"measurement": "relative viability", "setting": "LXF-289; first compound 0.03162 µM", "result": 0.932}, {"measurement": "relative viability", "setting": "LXF-289; first compound 0.3162 µM", "result": 0.884}, {"measurement": "relative viability", "setting": "NCI-H1650; first compound 0.01 µM", "result": 0.762}, {"measurement": "relative viability", "setting": "NCI-H1650; first compound 0.03162 µM", "result": 0.922}, {"measurement": "relative viability", "setting": "NCI-H1650; first compound 0.3162 µM", "result": 0.54}, {"measurement": "relative viability", "setting": "NCI-H2087; first compound 0.01 µM", "result": 1.17}, {"measurement": "relative viability", "setting": "NCI-H2087; first compound 0.03162 µM", "result": 1.17}, {"measurement": "relative viability", "setting": "NCI-H2087; first compound 0.3162 µM", "result": 1.05}, {"measurement": "relative viability", "setting": "CAL-12T; first compound 0.03162 µM", "result": 0.701}, {"measurement": "relative viability", "setting": "CAL-12T; first compound 0.3162 µM", "result": 0.647}, {"measurement": "relative viability", "setting": "NCI-H647; first compound 0.01 µM", "result": 1.71}, {"measurement": "relative viability", "setting": "NCI-H647; first compound 0.03162 µM", "result": 1.27}, {"measurement": "relative viability", "setting": "NCI-H647; first compound 0.3162 µM", "result": 1.34}, {"measurement": "relative viability", "setting": "RERF-LC-KJ; first compound 0.01 µM", "result": 0.965}, {"measurement": "relative viability", "setting": "RERF-LC-KJ; first compound 0.03162 µM", "result": 1.15}, {"measurement": "relative viability", "setting": "RERF-LC-KJ; first compound 0.3162 µM", "result": 0.881}, {"measurement": "relative viability", "setting": "NCI-H1355; first compound 0.01 µM", "result": 1.16}, {"measurement": "relative viability", "setting": "NCI-H1355; first compound 0.03162 µM", "result": 1.07}, {"measurement": "relative viability", "setting": "NCI-H1355; first compound 0.3162 µM", "result": 0.939}, {"measurement": "relative viability", "setting": "BEN; first compound 0.01 µM", "result": 0.807}, {"measurement": "relative viability", "setting": "BEN; first compound 0.03162 µM", "result": 0.906}, {"measurement": "relative viability", "setting": "BEN; first compound 0.3162 µM", "result": 0.708}, {"measurement": "relative viability", "setting": "NCI-H1395; first compound 0.03162 µM", "result": 0.943}, {"measurement": "relative viability", "setting": "NCI-H1395; first compound 0.3162 µM", "result": 1.03}, {"measurement": "relative viability", "setting": "NCI-H322M; first compound 0.01 µM", "result": 0.575}, {"measurement": "relative viability", "setting": "NCI-H322M; first compound 0.03162 µM", "result": 0.621}, {"measurement": "relative viability", "setting": "NCI-H322M; first compound 0.3162 µM", "result": 0.614}, {"measurement": "relative viability", "setting": "NCI-H1793; first compound 0.01 µM", "result": 0.367}, {"measurement": "relative viability", "setting": "NCI-H1793; first compound 0.03162 µM", "result": 0.804}, {"measurement": "relative viability", "setting": "NCI-H1793; first compound 0.3162 µM", "result": 0.486}, {"measurement": "relative viability", "setting": "NCI-H1437; first compound 0.01 µM", "result": 0.729}, {"measurement": "relative viability", "setting": "NCI-H1437; first compound 0.03162 µM", "result": 0.975}, {"measurement": "relative viability", "setting": "NCI-H1437; first compound 0.3162 µM", "result": 0.957}, {"measurement": "relative viability", "setting": "LCLC-97TM1; first compound 0.01 µM", "result": 0.881}, {"measurement": "relative viability", "setting": "LCLC-97TM1; first compound 0.03162 µM", "result": 0.842}, {"measurement": "relative viability", "setting": "LCLC-97TM1; first compound 0.3162 µM", "result": 1.23}, {"measurement": "relative viability", "setting": "NCI-H3122; first compound 0.01 µM", "result": 1.08}, {"measurement": "relative viability", "setting": "NCI-H3122; first compound 0.03162 µM", "result": 1.01}, {"measurement": "relative viability", "setting": "NCI-H3122; first compound 0.3162 µM", "result": 1.04}, {"measurement": "relative viability", "setting": "HOP-62; first compound 0.01 µM", "result": 1.14}, {"measurement": "relative viability", "setting": "HOP-62; first compound 0.03162 µM", "result": 0.985}, {"measurement": "relative viability", "setting": "HOP-62; first compound 0.3162 µM", "result": 0.966}, {"measurement": "relative viability", "setting": "HCC-44; first compound 0.01 µM", "result": 1.01}, {"measurement": "relative viability", "setting": "HCC-44; first compound 0.03162 µM", "result": 1.21}, {"measurement": "relative viability", "setting": "HCC-44; first compound 0.3162 µM", "result": 1.09}, {"measurement": "relative viability", "setting": "NCI-H2405; first compound 0.01 µM", "result": 1}, {"measurement": "relative viability", "setting": "NCI-H2405; first compound 0.03162 µM", "result": 1.16}, {"measurement": "relative viability", "setting": "NCI-H2405; first compound 0.3162 µM", "result": 0.943}, {"measurement": "relative viability", "setting": "201T; first compound 0.01 µM", "result": 1.03}, {"measurement": "relative viability", "setting": "201T; first compound 0.03162 µM", "result": 1}, {"measurement": "relative viability", "setting": "201T; first compound 0.3162 µM", "result": 1.1}, {"measurement": "relative viability", "setting": "SK-LU-1; first compound 0.01 µM", "result": 0.929}, {"measurement": "relative viability", "setting": "SK-LU-1; first compound 0.03162 µM", "result": 1.06}, {"measurement": "relative viability", "setting": "SK-LU-1; first compound 0.3162 µM", "result": 1.06}, {"measurement": "relative viability", "setting": "NCI-H2228; first compound 0.01 µM", "result": 1.51}, {"measurement": "relative viability", "setting": "NCI-H2228; first compound 0.03162 µM", "result": 0.867}, {"measurement": "relative viability", "setting": "NCI-H2228; first compound 0.3162 µM", "result": 0.992}]}
